According to patent publication US12077503B2, “Substituted cyclic amides and their use as herbicides” (FMC CORPORATION, priority 2015, dated 2024):

Legend:
Assay type in all cases: in vivo
[1] = tested on: ragweed (common ragweed, Ambrosia elatior); assay: Test A postemergence; settings: Ambrosia artemisiifolia, post-emergence, 240 h, postemergence, approx. 10 d
In short: (§1)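 In a loam soil and sand blend, planted seeds got a preemergence directed soil spray, and young plants at the one- to two-leaf stage, 2–10 cm high, got a postemergence application; ~10 d greenhouse hold; injury rated visually, 0 = none, 100 = complete control.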

corn (Zea mays) = assay: Test A postemergence; settings: Zea mays, post-emergence, 240 h
In short: as §1

[2] = tested on: pigweed (Amaranthus retroflexus); assay: Test A postemergence; settings: Amaranthus retroflexus, post-emergence, 240 h, postemergence, approx. 10 d
In short: as §1

[3] = tested on: barnyardgrass (Echinochloa crus-galli); assay: Test A postemergence; settings: Echinochloa crus-galli, post-emergence, 240 h, read-out: Plant response rating, Barnyardgrass
In short: as §1

[4] = tested on: Galium (catchweed bedstraw, Galium aparine); assay: Test A postemergence; settings: Galium, post-emergence, 240 h, postemergence, approx. 10 d
In short: as §1

[5] = tested on: wheat (Triticum aestivum); assay: Test A postemergence; settings: Triticum aestivum, post-emergence, 240 h, postemergence, approx. 10 d
In short: as §1

[6] = tested on: blackgrass (Alopecurus myosuroides); assay: Test A postemergence; settings: Alopecurus myosuroides, post-emergence, 240 h, read-out: Plant response rating, Blackgrass
In short: as §1

[7] = tested on: giant foxtail (Setaria faberii); assay: Test A postemergence; settings: Setaria faberi, post-emergence, 240 h, postemergence, approx. 10 d
In short: as §1

Kochia (Kochia scoparia) [8] = assay: Test A postemergence; settings: Bassia scoparia, post-emergence, 240 h, postemergence, approx. 10 d
In short: as §1

[9] = tested on: ryegrass, Italian (Italian ryegrass, Lolium multiflorum); assay: Test A postemergence; settings: Lolium multiflorum, post-emergence, 240 h, postemergence, approx. 10 d
In short: as §1

[10] = tested on: ragweed (common ragweed, Ambrosia elatior); assay: Test A preemergence; settings: Ambrosia artemisiifolia, pre-emergence, 240 h
In short: as §1

[11] = tested on: pigweed (Amaranthus retroflexus); assay: Test A preemergence; settings: Amaranthus retroflexus, pre-emergence, 240 h
[12] = tested on: barnyardgrass (Echinochloa crus-galli); assay: Test A preemergence; settings: Echinochloa crus-galli, pre-emergence, 240 h
In short: as §1

[13] = tested on: giant foxtail (Setaria faberii); assay: Test A preemergence; settings: Setaria faberi, pre-emergence, 240 h
In short: as §1

Kochia (Kochia scoparia) [14] = assay: Test A preemergence; settings: Bassia scoparia, pre-emergence, 240 h
In short: as §1

[15] = tested on: ryegrass, Italian (Italian ryegrass, Lolium multiflorum); assay: Test A preemergence; settings: Lolium multiflorum, pre-emergence, 240 h
In short: as §1

[16] = 125 g ai/ha, Postemergence, visual injury after approximately 10 d, 0 to 100 scale where 0 is no effect and 100 is complete control
[17] = 500 g ai/ha, postemergence, visual injury, 0 to 100 scale (0 no effect, 100 complete control), approx. 10 d

Compound: Cc1ccc([C@H]2CNC(=O)[C@@H]2C(=O)Nc2ccccc2S(C)(=O)=O)cc1C [Compound 1037]
- pest or weed control at 125 g/ha ([1]; 125 g ai/ha, visual injury on 0 to 100 scale (0 no effect, 100 complete control), read-out: Ragweed plant response rating): 20%
- pest or weed control at 500 g/ha ([1]; 500 g ai/ha, visual injury, 0 to 100 scale (0 no effect, 100 complete control), read-out: Plant response rating, Ragweed): 30%
- Corn plant response rating (crop injury, 0 = no effect, 100 = complete kill) at 125 g/ha (corn (Zea mays); [16]): 0%
- Corn plant response rating (crop injury, 0 = no effect, 100 = complete kill) at 500 g/ha (corn (Zea mays); [17]): 30%
- pest or weed control at 125 g/ha ([2]; 125 g ai/ha, visual injury on 0 to 100 scale (0 no effect, 100 complete control), read-out: Pigweed plant response rating): 0%
- pest or weed control at 500 g/ha ([2]; 500 g ai/ha, visual injury, 0 to 100 scale (0 no effect, 100 complete control), read-out: Plant response rating, Pigweed): 0%
- pest or weed control at 125 g/ha [3, 16]: 70%
- pest or weed control at 500 g/ha [3, 17]: 90%
- pest or weed control at 125 g/ha ([4]; 125 g ai/ha, visual injury on 0 to 100 scale (0 no effect, 100 complete control), read-out: Galium plant response rating): 40%
- pest or weed control at 500 g/ha ([4]; 500 g ai/ha, visual injury, 0 to 100 scale (0 no effect, 100 complete control), read-out: Plant response rating, Galium): 60%
- plant injury at 125 g/ha ([5]; 125 g ai/ha, visual injury on 0 to 100 scale (0 no effect, 100 complete control), read-out: Wheat plant response rating): 0%
- plant injury at 500 g/ha ([5]; 500 g ai/ha, visual injury, 0 to 100 scale (0 no effect, 100 complete control), read-out: Plant response rating, Wheat): 30%
- pest or weed control at 125 g/ha [6, 16]: 0%
- pest or weed control at 500 g/ha [6, 17]: 20%
- pest or weed control at 125 g/ha ([7]; 125 g ai/ha, visual injury on 0 to 100 scale (0 no effect, 100 complete control), read-out: Foxtail, Giant plant response rating): 0%
- pest or weed control at 500 g/ha ([7]; 500 g ai/ha, visual injury, 0 to 100 scale (0 no effect, 100 complete control), read-out: Plant response rating, Foxtail, Giant): 30%
- pest or weed control at 125 g/ha (Kochia (Kochia scoparia) [8]; 125 g ai/ha, visual injury on 0 to 100 scale (0 no effect, 100 complete control), read-out: Kochia plant response rating): 0%
- pest or weed control at 500 g/ha (Kochia (Kochia scoparia) [8]; 500 g ai/ha, visual injury, 0 to 100 scale (0 no effect, 100 complete control), read-out: Plant response rating, Kochia): 20%
- pest or weed control at 125 g/ha ([9]; 125 g ai/ha, visual injury on 0 to 100 scale (0 no effect, 100 complete control), read-out: Ryegrass, Italian plant response rating): 0%
- pest or weed control at 500 g/ha ([9]; 500 g ai/ha, visual injury, 0 to 100 scale (0 no effect, 100 complete control), read-out: Plant response rating, Ryegrass, Italian): 50%
- pest or weed control at 125 g/ha ([10]; 125 g ai/ha, Preemergence, visual injury rating after approximately 10 d, read-out: Ragweed plant response rating (0 to 100 scale, 0 is no effect, 100 is complete control)): 0%
- pest or weed control at 500 g/ha ([10]; 500 g ai/ha, preemergence, visual injury rating about 10 d after treatment, 0 to 100 scale (0 no effect, 100 complete control), read-out: Ragweed plant response rating): 60%
- pest or weed control at 125 g/ha ([11]; 125 g ai/ha, Preemergence, visual injury rating after approximately 10 d, read-out: Pigweed plant response rating (0 to 100 scale, 0 is no effect, 100 is complete control)): 0%
- pest or weed control at 500 g/ha ([11]; 500 g ai/ha, preemergence, visual injury rating about 10 d after treatment, 0 to 100 scale (0 no effect, 100 complete control), read-out: Pigweed plant response rating): 20%
- pest or weed control at 125 g/ha ([12]; 125 g ai/ha, Preemergence, visual injury rating after approximately 10 d, read-out: Barnyardgrass plant response rating (0 to 100 scale, 0 is no effect, 100 is complete control)): 80%
- pest or weed control at 500 g/ha ([12]; 500 g ai/ha, preemergence, visual injury rating about 10 d after treatment, 0 to 100 scale (0 no effect, 100 complete control), read-out: Barnyardgrass plant response rating): 90%
- pest or weed control at 125 g/ha ([13]; 125 g ai/ha, Preemergence, visual injury rating after approximately 10 d, read-out: Foxtail, Giant plant response rating (0 to 100 scale, 0 is no effect, 100 is complete control)): 20%
- pest or weed control at 500 g/ha ([13]; 500 g ai/ha, preemergence, visual injury rating about 10 d after treatment, 0 to 100 scale (0 no effect, 100 complete control), read-out: Foxtail, Giant plant response rating): 80%
- pest or weed control at 125 g/ha (Kochia (Kochia scoparia) [14]; 125 g ai/ha, Preemergence, visual injury rating after approximately 10 d, read-out: Kochia plant response rating (0 to 100 scale, 0 is no effect, 100 is complete control)): 40%
- pest or weed control at 500 g/ha (Kochia (Kochia scoparia) [14]; 500 g ai/ha, preemergence, visual injury rating about 10 d after treatment, 0 to 100 scale (0 no effect, 100 complete control), read-out: Kochia plant response rating): 90%
- pest or weed control at 125 g/ha ([15]; 125 g ai/ha, Preemergence, visual injury rating after approximately 10 d, read-out: Ryegrass, Italian plant response rating (0 to 100 scale, 0 is no effect, 100 is complete control)): 50%
- pest or weed control at 500 g/ha ([15]; 500 g ai/ha, preemergence, visual injury rating about 10 d after treatment, 0 to 100 scale (0 no effect, 100 complete control), read-out: Ryegrass, Italian plant response rating): 70%
